# Laboratory results from patent US8269000B2, “Substituted pyrimidine and triazine compounds” (Gruenenthal GmbH, priority 2008, dated 2012).
# Target: T1, rat B1R (Rattus norvegicus, UniProt P97583)
# T1 construct: expressed in transfected cells; host or cells: CHO K1 cells
# T1 sequence (P97583 1-337): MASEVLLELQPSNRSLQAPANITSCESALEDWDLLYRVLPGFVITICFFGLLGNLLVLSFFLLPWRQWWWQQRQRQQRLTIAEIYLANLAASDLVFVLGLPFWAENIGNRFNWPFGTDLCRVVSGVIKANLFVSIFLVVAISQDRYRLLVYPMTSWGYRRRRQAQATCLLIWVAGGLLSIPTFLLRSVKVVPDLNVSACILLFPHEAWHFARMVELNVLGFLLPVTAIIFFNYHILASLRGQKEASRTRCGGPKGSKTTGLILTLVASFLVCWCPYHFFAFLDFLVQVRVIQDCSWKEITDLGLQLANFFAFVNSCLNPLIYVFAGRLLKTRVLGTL
# Assay: FLIPR Ca2+ functional study on bradykinin receptor 1 (rB1R CHO K1 cells)
# Assay type: cell-based
# Settings: % inhibition rat B1R at 10 μM
# Experimental: The agonistic or antagonistic activity of substances can be quantified on the bradykinin receptor 1 (B1R) of the species human and rat using ectopically expressing cell lines (CHO K1 cells) and with the aid of a Ca^2+-sensitive dye (Fluo-4) using a fluorescent imaging plate reader (FLIPR). The indication in % activation is based on the Ca^2+ signal after addition of Lys-Des-Arg^9-bradykinin (0.5 nM) or Des-Arg^9-bradykinin (100 nM). Antagonists lead to suppression of the Ca^2+ influx after the addition of the agonist. % Inhibition compared with the maximum achievable inhibition is indicated.
# The agonistic or antagonistic activity of substances can be determined on the bradykinin receptor 1 (B1R) of the species human and rat using the following assay. According to this assay, the Ca^2+ influx through the channel is quantified with the aid of a Ca^2+-sensitive dye (Fluo-4 type, Molecular Probes Europe BV, Leiden, Netherlands) using a Fluorescent Imaging Plate Reader (FLIPR, Molecular Devices, Sunnyvale, USA).
# Chinese hamster ovary cells (CHO K1 cells) which have been stably transfected with the human B1R gene (hB1R cells) or with the B1R gene of the rat (rB1R cells) are used. For functional studies, the cells are plated out on black 96-well plates having a clear base (BD Biosciences, Heidelberg, Germany or Greiner, Frickenhausen, Germany) in a density of 20,000-35,000 cells/well. The cells are left overnight at 37° C. and with 5% CO2 in culture medium (hB1R cells: Nutrient Mixture Ham's F12, Gibco Invitrogen GmbH, Karlsruhe, Germany or DMEM, Sigma-Aldrich, Taufkirchen, Germany; rB1R cells: D-MEM/F12, Gibco Invitrogen GmbH, Karlsruhe, Germany), with 10 vol.% FBS (fetal bovine serum, Gibco Invitrogen GmbH, Karlsruhe, Germany or PAN Biotech GmbH, Aidenbach, Germany). On the following day, the cells are loaded for 60 minutes at 37° C. with 2.13 μM Fluo-4 (Molecular Probes Europe BV, Leiden, Netherlands) in HBSS buffer (Hank's buffered saline solution, Gibco Invitrogen GmbH, Karlsruhe, Germany) […] (Sigma-Aldrich, Taufkirchen, Germany) and 10 mM HEPES (Sigma-Aldrich, Taufkirchen, Germany). The plates are then washed twice with HBSS buffer, and HBSS buffer additionally containing 0.1% BSA (bovine serum albumin; Sigma-Aldrich, Taufkirchen, Germany), 5.6 mM glucose and 0.05% gelatin (Merck KGaA, Darmstadt, Germany) is added to the plates. After incubation for a further 20 minutes at room temperature, the plates are inserted into the FLIPR for Ca^2+ measurement. Alternatively, washing is carried out with buffer A (15 mM HEPES, 80 mM NaCl, 5 mM KCl, 1.2 mM CaCl2, 0.7 mM MgSO4, 2 g/l glucose, 2.5 mM probenecid) followed by loading with buffer A with added 2.5 μM Fluo-4 and 0.025% Pluronic F127 (Sigma-Aldrich, Taufkirchen, Germany). The cells are then washed twice with buffer A and incubated for 30 minutes at room temperature with buffer A additionally containing 0.05% BSA and 0.05% gelatin and are then inserted into the FLIPR for Ca^2+ measurement. The Ca^2+-dependent fluorescence is measured before and after the addition of substances (λex=488 nm, λem=540 nm). Quantification is carried out by measuring the highest fluorescence intensity (FC, fluorescence counts) over time.
# The FLIPR protocol consists of two substance additions. Test substances (10 μM) are first pipetted onto the cells and the Ca^2+ influx is compared with the control (hB1R: Lys-Des-Arg^9-bradykinin>=50 nM; rB1R: Des-Arg^9-bradykinin 10 μM). This gives the activation in %, based on the Ca^2+ signal after addition of Lys-Des-Arg^9-bradykinin (>=50 nM) or Des-Arg^9-bradykinin (10 μM). After 10-20 minutes' incubation, Lys-Des-Arg^9-bradykinin (hB1R) or Des-Arg^9-bradykinin (rB1R) is applied in the concentration of the EC80, and the influx of Ca^2+ is likewise determined. Antagonists lead to suppression of the Ca^2+ influx. The % inhibition compared with the maximum achievable inhibition is calculated. […]
row,Compound,% inh. (rat B1R) 10 μM [%]
1,"4-[[1-[(4-methoxy-2,6-dimethyl-phenyl)sulfonyl]-piperidin-2-yl]-methoxy]-2-(4-pyrazin-2-yloxy-piperidin-1-yl)-pyrimidine [H_CC-080]",59
2,"COc1cc(C)c(S(=O)(=O)N(C)CCOc2nccc(N3CCN(CC4CCN(C)CC4)CC3)n2)c(C)c1 [G_CC-007, 4-methoxy-N,2,6-trimethyl-N-[2-[[4-[4-[(1-methyl-4-piperidinyl)methyl]-1-piperazin]-2-pyrimidinyl]oxy]ethyl]benzenesulfonamide]",95

# Same assay, conditions: CHO-K1, % inhibition rat B1R at 10 μM, read-out: % inh. (rat B1R) 10 μM
row,Compound,inhibition at 10 µM [%]
1,"O=S(=O)(c1cccc(C(F)(F)F)c1)N(CCCc1ccnc(N2CCC3(CCN(c4ccncc4)CC3)CC2)n1)C1CC1 [Example I-008, N-cyclopropyl-N-[3-[2-(9-pyridin-4-yl-3,9-diazaspiro[5.5]undecan-3-yl)-pyrimidin-4-yl]-propyl]-3-(trifluoromethyl)-benzenesulfonic acid amide]",94
2,"COc1cc(C)c(S(=O)(=O)N(C)CCOc2nccc(N3CCN(c4ccc(F)cc4)CC3)n2)c(C)c1 [G_CC-005, N-[2-[[4-[4-(4-fluorophenyl)-1-piperazinyl]-2-pyrimidinyl]oxy]ethyl]-4-methoxy-N,2,6-trimethylbenzenesulfonamide]",81
3,"COc1cc(C)c(S(=O)(=O)N(C)CCOc2nccc(N3CCC(N4CCN(C)CC4)CC3)n2)c(C)c1 [G_CC-006, 4-methoxy-N,2,6-trimethyl-N-[2-[[4-[4-(4-methyl-1-piperazinyl)-1-piperidinyl]-2-pyrimidinyl]oxy]ethyl]benzenesulfonamide]",97
4,"COc1cc(C)c(S(=O)(=O)N(C)CCOc2nccc(N3CCC(O)(c4cccnc4)CC3)n2)c(C)c1 [G_CC-008, N-[2-[[4-[4-hydroxy-4-(3-pyridyl)-1-piperidinyl]-2-pyrimidinyl]oxy]ethyl]-4-methoxy-N,2,6-trimethylbenzenesulfonamide]",59
5,"COc1cc(C)c(S(=O)(=O)N2CCCCC2COc2nccc(N3CCN(C)CC3)n2)c(C)c1 (stereo not drawn) [G_CC-009, 2-[[1-(4-methoxy-2,6-dimethylphenyl)sulfonyl-2-piperidinyl]methoxy]-4-(4-methyl-1-piperazinyl)pyrimidine]",63
6,"COc1cc(C)c(S(=O)(=O)N2CCCCC2COc2nccc(N3CCN(c4ccc(F)cc4)CC3)n2)c(C)c1 (stereo not drawn) [G_CC-010, 4-[4-(4-fluorophenyl)-1-piperazinyl]-2-[[1-(4-methoxy-2,6-dimethylphenyl)sulfonyl-2-piperidinyl]methoxy]pyrimidine]",70

# Next, values leading:
row,inhibition at 10 µM [%],Compound
1,76,"COc1cc(C)c(S(=O)(=O)N2CCCCC2COc2nccc(N3CCN(c4ncccn4)CC3)n2)c(C)c1 (stereo not drawn) [G_CC-012, 2-[[1-(4-methoxy-2,6-dimethylphenyl)sulfonyl-2-piperidinyl]methoxy]-4-[4-(2-pyrimidinyl)-1-piperazinyl]pyrimidine]"
2,83,"COc1cc(C)c(S(=O)(=O)N2CCC[C@H]2COc2nccc(N3CCN(C)CC3)n2)c(C)c1 [G_CC-015, 2-[[(2S)-1-(4-methoxy-2,6-dimethylphenyl)sulfonyl-2-pyrrolidinyl]methoxy]-4-(4-methyl-1-piperazinyl)pyrimidine]"
3,98,"COc1cc(C)c(S(=O)(=O)N2CCC[C@H]2COc2nccc(N3CCC(N4CCN(C)CC4)CC3)n2)c(C)c1 [G_CC-017, 2-[[(2S)-1-(4-methoxy-2,6-dimethylphenyl)sulfonyl-2-pyrrolidinyl]methoxy]-4-[4-(4-methyl-1-piperazinyl)-1-piperidinyl]pyrimidine]"
4,97,"COc1cc(C)c(S(=O)(=O)N2CCC[C@H]2COc2nccc(N3CCN(c4ncccn4)CC3)n2)c(C)c1 [G_CC-018, 2-[[(2S)-1-(4-methoxy-2,6-dimethylphenyl)sulfonyl-2-pyrrolidinyl]methoxy]-4-[4-(2-pyrimidinyl)-1-piperazinyl]pyrimidine]"
